Tests used:
NLRP3 = target: T1, NLRP3 (Homo sapiens, UniProt Q96P20); assay: PBMC assay, IL-1β release after LPS stimulation; format: cell-based; conditions: human PBMCs, 100 ng/ml LPS for 6 hrs, IL-1β in supernatant via MSD; read-out: IL1β IC50
T1 construct: human peripheral blood mononuclear cells (PBMCs) were isolated from blood; endogenous in cells; host or cells: primary human PBMCs from healthy donors
Protocol: The activity of a compound according to the present invention can be assessed by in vitro methods.
Peripheral venous blood was collected from healthy individuals and human peripheral blood mononuclear cells (PBMCs) were isolated from blood by Ficoll-Histopaque (Sigma-Aldrich, A0561) density gradient centrifugation. After isolation, PBMCs were stored in liquid nitrogen for later use. Upon thawing, PBMC cell viability was determined in growth medium (RPMI media supplemented with 10% fetal bovine serum, 1% Pen-Strep and 1% L-glutamine). […] PBMCs were added at a density of 7.5×10^4 cells per well and incubated for 30 min in a 5% C02 incubator at 37° C. LPS stimulation was performed by addition of 100 ng/ml LPS (final concentration, Invivogen, tlrl-smlps) for 6 hrs followed by collection of cellular supernatant and the analysis of IL-1β (μM) and TNF cytokines levels (μM) via MSD technology according to manufacturers' guidelines (MSD, K151A0H).

TNF = assay: PBMC assay, TNF cytokine levels after LPS stimulation; format: cell-based; conditions: human PBMCs, 100 ng/ml LPS for 6 hrs, TNF in supernatant via MSD
Protocol: Peripheral venous blood was collected from healthy individuals and human peripheral blood mononuclear cells (PBMCs) were isolated from blood by Ficoll-Histopaque (Sigma-Aldrich, A0561) density gradient centrifugation. After isolation, PBMCs were stored in liquid nitrogen for later use. Upon thawing, PBMC cell viability was determined in growth medium (RPMI media supplemented with 10% fetal bovine serum, 1% Pen-Strep and 1% L-glutamine). Compounds were spotted in a 1:3 serial dilution in DMSO and diluted to the final concentration in 30 μl medium in 96 well plates (Falcon, 353072). PBMCs were added at a density of 7.5×10^4 cells per well and incubated for 30 min in a 5% C02 incubator at 37° C. LPS stimulation was performed by addition of 100 ng/ml LPS (final concentration, Invivogen, tlrl-smlps) for 6 hrs followed by collection of cellular supernatant and the analysis of IL-1β (μM) and TNF cytokines levels (μM) via MSD technology according to manufacturers' guidelines (MSD, K151A0H).
The IC50 values (for IL-1β) and EC50 values (TNF) were obtained on compounds of the invention/examples, and are depicted in the following table: […]

T1 sequence (Q96P20 whole entry): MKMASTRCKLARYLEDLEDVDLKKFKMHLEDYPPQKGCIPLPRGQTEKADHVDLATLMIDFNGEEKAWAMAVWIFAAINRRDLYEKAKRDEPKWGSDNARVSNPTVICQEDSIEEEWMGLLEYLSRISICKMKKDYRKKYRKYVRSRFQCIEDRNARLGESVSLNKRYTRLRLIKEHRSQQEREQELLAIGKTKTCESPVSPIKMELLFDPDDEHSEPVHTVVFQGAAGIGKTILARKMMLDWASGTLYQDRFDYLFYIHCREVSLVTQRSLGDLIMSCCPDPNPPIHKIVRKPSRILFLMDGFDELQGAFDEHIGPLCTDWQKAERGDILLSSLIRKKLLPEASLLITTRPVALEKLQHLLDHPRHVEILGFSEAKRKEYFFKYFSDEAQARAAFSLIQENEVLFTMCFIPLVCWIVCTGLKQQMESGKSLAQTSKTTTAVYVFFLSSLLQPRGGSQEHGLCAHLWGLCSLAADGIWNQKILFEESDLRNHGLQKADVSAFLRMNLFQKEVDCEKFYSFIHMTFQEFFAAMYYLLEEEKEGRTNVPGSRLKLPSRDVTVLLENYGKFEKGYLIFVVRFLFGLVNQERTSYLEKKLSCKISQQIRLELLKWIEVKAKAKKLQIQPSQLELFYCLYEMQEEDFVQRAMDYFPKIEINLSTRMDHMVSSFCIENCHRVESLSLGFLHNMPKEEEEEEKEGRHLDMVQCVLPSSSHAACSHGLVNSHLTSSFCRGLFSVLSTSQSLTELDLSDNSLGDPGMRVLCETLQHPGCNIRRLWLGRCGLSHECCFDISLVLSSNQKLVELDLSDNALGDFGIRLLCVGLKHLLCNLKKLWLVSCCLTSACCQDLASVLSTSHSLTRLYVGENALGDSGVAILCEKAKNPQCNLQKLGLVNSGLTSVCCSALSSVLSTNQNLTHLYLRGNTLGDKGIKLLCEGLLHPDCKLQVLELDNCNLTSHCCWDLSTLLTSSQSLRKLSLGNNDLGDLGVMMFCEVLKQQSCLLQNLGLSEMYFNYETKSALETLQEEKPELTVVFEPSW

Row | IC50 (NLRP3) | EC50 (TNF) | melting point | Compound
1 | 0.41 µM | > 10 µM |  | COc1ncccc1NC(=O)Cn1nc(C(C)C)n2c(cc3ccccc32)c1=O [Final Cpd 12]
2 | 0.15 µM | > 10 µM |  | Cc1cc(NC(=O)Cn2nc(C(C)C)n3c(cc4ccccc43)c2=O)ccn1 [Final Cpd 13]
3 | 1.89 µM | > 10 µM |  | O=C(Cn1ncn2c(cc3ccccc32)c1=O)Nc1ccncn1 [Final Cpd 2]
4 | 0.47 µM | > 10 µM |  | O=C(Cn1nc(C(F)F)n2c(cc3ccccc32)c1=O)Nc1ccncn1 [Final Cpd 5]
5 | 7.24 µM | > 10 µM |  | CCc1nn(CC(=O)Nc2ccncn2)c(=O)c2cc3cc(F)ccc3n12 [Final Cpd 36]
6 | 3.5 µM | > 10 µM |  | N#Cc1nn(CC(=O)Nc2ccncn2)c(=O)c2cc3ccccc3n12 [Final Cpd 7]
7 | > 10 µM | > 10 µM |  | CCc1nn(CC(=O)Nc2ccncn2)c(=O)c2cc3cc(C)ccc3n12 [Final Cpd 37]
8 | 0.052 µM | > 20 µM |  | CN(C)c1nn(CC(=O)Nc2ccc3nncn3c2)c(=O)c2cc3ccccc3n12 [Final Cpd 47]
9 | 0.31 µM | > 10 µM |  | CCc1nn(CC(=O)Nc2ccncn2)c(=O)c2cc3ccc(F)cc3n12 [Final Cpd 33]
10 | 5.8 µM | > 10 µM |  | O=C(Cn1nc(-c2ncco2)n2c(cc3ccccc32)c1=O)Nc1ccncn1 [Final Cpd 8]
11 | 0.122 µM | > 20 µM |  | CCc1nn(CC(=O)Nc2ccc3nncn3c2)c(=O)c2cc3ccccc3n12 [Final Cpd 48]
12 | > 10 µM | > 10 µM |  | CC(F)(F)c1nn(CC(=O)Nc2ccncn2)c(=O)c2cc3ccccc3n12 [Final Cpd 6]
13 | 0.17 µM | > 10 µM |  | CC(C)c1nn(CC(=O)Nc2ccncn2)c(=O)c2cc3ccccc3n12 [Final Cpd 14]
14 | 0.025 µM | 3.94 µM |  | CC(C)c1nn(CC(=O)Nc2ccc3nncn3n2)c(=O)c2cc3ccccc3n12 [Final Cpd 49, N-([1,2,4]triazolo[4,3-b]pyridazin-6-yl)-2-(4-isopropyl-1-oxo-[1,2,4]triazino[4,5-a]indol-2(1H)-yl)acetamide]
15 | 7.7 µM | > 20 µM | 243 °C | CCc1nn(CC(=O)Nc2ccn(C(C)C)n2)c(=O)c2cc3ccccc3n12 [Final Cpd 38]
16 | 0.63 µM | > 10 µM | 232.81 °C | CCc1nn(CC(=O)Nc2cccnc2)c(=O)c2cc3ccccc3n12 [Final Cpd 15]
17 | 0.76 µM | > 10 µM |  | O=C(Cn1nc(C2CC2)n2c(cc3ccccc32)c1=O)Nc1ccncn1 [Final Cpd 18]
18 | 1.91 µM | > 10 µM |  | O=C(Cn1nc(C(F)(F)F)n2c(cc3ccccc32)c1=O)Nc1ccncn1 [Final Cpd 9]
19 | > 10 µM | > 10 µM | 248.91 °C | CCc1nn(CC(=O)Nc2ccncn2)c(=O)c2cc3ccc(C)cc3n12 [Final Cpd 30]
20 | 1.44 µM | > 10 µM |  | CC(O)c1nn(CC(=O)Nc2ccncn2)c(=O)c2cc3ccccc3n12 (stereo not shown) [Final Cpd 22, 2-[4-(1-hydroxyethyl)-1-oxo-[1,2,4]triazino[4,5-a]indol-2-yl]-N-pyrimidin-4-yl-acetamide]
21 | 1.54 µM | > 10 µM |  | O=C(Cn1nc(C2CCC2)n2c(cc3ccccc32)c1=O)Nc1ccncn1 [Final Cpd 4]
22 | 1.58 µM | > 10 µM |  | O=C(Cn1ncn2c(cc3ccc(F)cc32)c1=O)Nc1ccncn1 [Final Cpd 3]
23 | 0.62 µM | > 10 µM |  | O=C(Cn1nc(Cl)n2c(cc3ccccc32)c1=O)Nc1ccncn1 [Final Cpd 1, 2-(4-chloro-1-oxo-[1,2,4]triazino[4,5-a]indol-2-yl)-N-pyrimidin-4-yl-acetamide]

The remaining lines, values behind:

Row | Compound | IC50 (NLRP3) | EC50 (TNF) | melting point
24 | CN(C)c1nn(CC(=O)N[C@H]2C[C@@](C)(O)C2)c(=O)c2cc3ccccc3n12 [Final Cpd 44] | 0.057 µM | > 20 µM | 
25 | CC(C)c1nn(CC(=O)NC2CC2)c(=O)c2cc3ccccc3n12 [Final Cpd 29] | 0.66 µM | > 10 µM | 
26 | Cc1nn(CC(=O)NC2CC2)c(=O)c2cc3ccccc3n12 [Final Cpd 23, N-cyclopropyl-2-(4-methyl-1-oxo-[1,2,4]triazino[4,5-a]indol-2-yl)acetamide] | 9.12 µM | > 10 µM | 
27 | CN(C)c1nn(CC(=O)N[C@H]2CC[C@H](O)CC2)c(=O)c2cc3ccccc3n12 [Final Cpd 21] | 0.39 µM | > 10 µM | 
28 | CCc1nn(CC(=O)NC2CCOCC2)c(=O)c2cc3cc(F)ccc3n12 [Final Cpd 35] | > 10 µM | > 10 µM | 285.66 °C
29 | O=C(Cn1nc(C2CCCCC2)n2c(cc3ccccc32)c1=O)NC1CCOCC1 [Final Cpd 28] | > 10 µM | > 10 µM | 
30 | CCc1nn(CC(=O)N[C@H]2C[C@@](C)(O)C2)c(=O)c2cc3ccccc3n12 [Final Cpd 43] | 0.086 µM | > 20 µM | 
31 | CCc1nn(CC(=O)N[C@H]2C[C@@](C)(O)C2)c(=O)c2cc3ccc(F)cc3n12 [Final Cpd 39, 2-{4-ethyl-7-fluoro-1-oxo-[1,2,4]triazino[4,5-a]indol-2(1H)-yl}-N-((1s,3s)-3-hydroxy-3-methylcyclobutyl)acetamide] | 0.176 µM | > 20 µM | 
32 | O=C(Cn1nc(C2CCCC2)n2c(cc3ccccc32)c1=O)NC1CCOCC1 [Final Cpd 25] | > 10 µM | > 20 µM | 
33 | COc1nn(CC(=O)NC2CC2)c(=O)c2cc3ccccc3n12 [Final Cpd 50] | 4.07 µM | > 10 µM | 
34 | O=C(Cn1nc(-c2cccs2)n2c(cc3ccccc32)c1=O)NC1CCOCC1 [Final Cpd 27] | > 10 µM | > 10 µM | 
35 | CCc1nn(CC(=O)NC2CC2)c(=O)c2cc3ccc(F)cc3n12 [Final Cpd 10] | 1.68 µM | > 10 µM | 277.81 °C
36 | CCc1nn(CC(=O)NC2CCOCC2)c(=O)c2cc3cc(C)ccc3n12 [Final Cpd 34] | 7.24 µM | > 10 µM | 274.18 °C
37 | COc1nn(CC(=O)NC2CCOCC2)c(=O)c2cc3ccccc3n12 [Final Cpd 24, 2-(4-methoxy-1-oxo-[1,2,4]triazino[4,5-a]indol-2-yl)-N-tetrahydropyran-4-yl-acetamide] | 1.17 µM | > 10 µM | 
38 | CCc1nn(CC(=O)NC2CCOCC2)c(=O)c2cc3ccc(C)cc3n12 [Final Cpd 32] | > 10 µM | > 10 µM | 264.11 °C
39 | CCc1nn(CC(=O)Nc2ccccc2OC)c(=O)c2cc3ccccc3n12 [Final Cpd 17] | 2.8 µM | > 10 µM | 216.79 °C
40 | CC(C)c1nn(CC(=O)N[C@H]2C[C@@](C)(O)C2)c(=O)c2cc3ccccc3n12 [Final Cpd 41] | 0.052 µM | 15.4 µM | 
41 | CN(C)c1nn(CC(=O)NC2CCOCC2)c(=O)c2cc3ccccc3n12 [Final Cpd 20] | 0.31 µM | > 10 µM | 
42 | CC(C)c1nn(CC(=O)N[C@H]2C[C@@](C)(O)C2)c(=O)c2cc3ccc(F)cc3n12 [Final Cpd 42] | 0.077 µM | 10.9 µM | 
43 | CN(C)c1nn(CC(=O)N[C@H]2C[C@@](C)(O)C2)c(=O)c2cc3ccc(F)cc3n12 [Final Cpd 40] | 0.237 µM | > 20 µM | 
44 | CCc1nn(CC(=O)Nc2ccncc2)c(=O)c2cc3ccc(F)cc3n12 [Final Cpd 31] | 0.79 µM | > 10 µM | 
45 | CC(C)Cc1nn(CC(=O)NC2CCOCC2)c(=O)c2cc3ccccc3n12 [Final Cpd 26] | > 10 µM | > 10 µM | 
46 | CC(C)c1nn(CC(=O)Nc2ccc3nncn3c2)c(=O)c2cc3ccc(F)cc3n12 [Final Cpd 46] | 0.044 µM | > 20 µM | 
